Experimental data: US9150566B2, “2-(1,2,3-triazol-2-yl)benzamide and 3-(1,2,3-triazol-2-YL)picolinamide derivatives as orexin receptor antagonists” (ACTELION PHARMACEUTICALS LTD., priority 2011, dated 2015)
Like-named read-outs stand apart in the source and are kept apart here.

How the values were obtained:
[1] = molecular target: CYP3A4 (Homo sapiens (Human), UniProt P08684); test: CYP3A4 inhibition assay (human liver microsomes, testosterone 6β-hydroxylation); details: read-out: CYP3A4 IC50, 40 μM testosterone
Procedure: The CYP3A4 inhibition assay was performed using human liver microsomes and testosterone 6β-hydroxylation as a P450 isoform-specific marker. In a total volume of 150 μL, ^14C-testosterone at a final concentration of 40 μM in a 100 mM phosphate buffer (pH 7.4) was incubated in a 96-well plate with 0.3 mg/mL of human liver microsomes in an Eppendorf thermomixer at 37° C. and 400 rpm. […] The reaction was initiated by addition of 15 μL of the NADPH-regenerating system containing the glucose-6-phosphate dehydrogenase and terminated after 7 min with a 75 μL-aliquot of methanol. After centrifugation at 465 g and 4° C. for 20 min, a 50 μL-aliquot of the supernatant was submitted to HPLC according to the method described below. The total concentration of DMSO in the assay including controls without inhibitor was 1%.
Nicardipine was run in parallel as a reference inhibitor of CYP3A4 activity at final concentrations of 0, 0.1, 0.5, 1.0, 5.0, 10, 25, and 50 μM. Stock solutions thereof were prepared in DMSO.
The chromatographic separation of testosterone and 6β-hydroxytestosterone was achieved on a Phenomenex Luna C18(2) column (5 μm, 2.0×10 mm) at RT with a flow rate of 0.6 mL/min. Mobile phases consisted of 1% aqueous formic acid (phase A) and methanol (phase B) using a gradient method with 0.9 min total run time.
The quantification of 6β-hydroxytestosterone was carried out using a quadrupole mass spectrometer equipped with an ionspray interface operating in positive ion mode. The parameters of the mass detector were set as follows: capillary voltage 5 kV, auxiliary gas 40 psi, collision gas 3 mTorr, and transfer capillary temperature 420° C.

[2] = molecular target: human orexin-1 receptor (Homo sapiens (Human), UniProt O43613); test: In vitro intracellular calcium measurements (FLIPR), antagonistic activity on orexin-1 receptor; assay type: cell-based; details: read-out: IC50 OX1
Method in brief: (§1)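 CHO cells expressing human orexin-1 or orexin-2 receptor were seeded overnight, preincubated with antagonist for 120 min, then stimulated with agonist in a FLIPR Tetra.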

[3] = molecular target: human orexin-2 receptor (Homo sapiens (Human), UniProt O43614); test: In vitro intracellular calcium measurements (FLIPR), antagonistic activity on orexin-2 receptor; assay type: cell-based; details: read-out: IC50 OX2
Method in brief: as §1

[4] = CHO cells expressing human orexin-1 receptor, FLIPR, 3 nM orexin-A agonist, 120 min antagonist incubation, geometric mean if determined several times
[5] = CHO cells expressing human orexin-2 receptor, FLIPR, 3 nM orexin-A agonist, 120 min antagonist incubation, geometric mean if determined several times

Chain of human orexin-2 receptor (O43614 whole entry): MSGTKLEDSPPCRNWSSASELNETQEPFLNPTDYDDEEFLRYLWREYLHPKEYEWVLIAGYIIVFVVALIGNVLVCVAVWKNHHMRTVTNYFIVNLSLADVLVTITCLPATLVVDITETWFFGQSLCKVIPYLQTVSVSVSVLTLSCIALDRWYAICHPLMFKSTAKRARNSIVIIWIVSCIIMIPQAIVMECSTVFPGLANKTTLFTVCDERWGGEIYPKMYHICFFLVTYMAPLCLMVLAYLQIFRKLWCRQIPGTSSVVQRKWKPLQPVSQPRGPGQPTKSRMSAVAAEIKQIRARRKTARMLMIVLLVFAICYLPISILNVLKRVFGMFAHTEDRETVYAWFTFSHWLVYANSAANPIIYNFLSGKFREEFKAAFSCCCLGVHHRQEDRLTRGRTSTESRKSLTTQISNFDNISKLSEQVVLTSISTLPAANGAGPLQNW
Chain of human orexin-1 receptor (O43613 whole entry): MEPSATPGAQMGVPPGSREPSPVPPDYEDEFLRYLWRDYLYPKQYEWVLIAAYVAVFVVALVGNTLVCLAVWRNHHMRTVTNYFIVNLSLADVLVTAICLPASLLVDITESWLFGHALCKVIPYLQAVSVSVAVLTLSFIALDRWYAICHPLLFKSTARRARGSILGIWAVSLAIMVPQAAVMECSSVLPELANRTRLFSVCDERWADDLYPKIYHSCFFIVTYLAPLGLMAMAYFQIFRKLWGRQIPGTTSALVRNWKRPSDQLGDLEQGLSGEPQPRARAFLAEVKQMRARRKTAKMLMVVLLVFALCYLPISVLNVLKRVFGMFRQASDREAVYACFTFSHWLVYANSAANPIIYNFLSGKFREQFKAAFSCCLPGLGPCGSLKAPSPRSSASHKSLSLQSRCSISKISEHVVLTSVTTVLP
Chain of CYP3A4 (P08684 whole entry): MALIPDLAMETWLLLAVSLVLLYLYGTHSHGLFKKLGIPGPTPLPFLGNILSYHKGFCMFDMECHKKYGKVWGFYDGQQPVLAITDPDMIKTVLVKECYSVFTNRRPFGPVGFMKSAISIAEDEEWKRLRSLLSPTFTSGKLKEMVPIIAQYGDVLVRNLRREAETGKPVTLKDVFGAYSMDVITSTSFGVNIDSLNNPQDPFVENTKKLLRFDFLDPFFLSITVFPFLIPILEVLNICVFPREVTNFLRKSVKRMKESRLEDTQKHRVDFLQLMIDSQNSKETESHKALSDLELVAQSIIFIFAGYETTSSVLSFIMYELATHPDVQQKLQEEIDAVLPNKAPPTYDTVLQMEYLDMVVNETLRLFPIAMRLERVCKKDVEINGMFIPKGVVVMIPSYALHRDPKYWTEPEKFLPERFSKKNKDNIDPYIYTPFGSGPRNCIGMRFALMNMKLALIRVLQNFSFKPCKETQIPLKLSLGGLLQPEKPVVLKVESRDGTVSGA

IC50 [1] | IC50 [2, 4] | IC50 [3, 5] | SMILES | IC50 [2] | IC50 [3]
15000 nM | 3 nM | 547 nM | Cc1cc(C)c(-n2nccn2)c(C(=O)N2CCOC[C@H]2Cc2cccc(-n3nccn3)c2)c1 [Example 75, (3,5-Dimethyl-2-[1,2,3]triazol-2-yl-phenyl)-[(R)-3-(3-[1,2,3]triazol-2-yl-benzyl)-morpholin-4-yl]-methanone] |  | 
22000 nM | 17 nM | 528 nM | COc1cc(C(=O)N2CCOC[C@H]2Cc2cccc(-n3nccn3)c2)c(-n2nccn2)cc1F [Example 78, (4-Fluoro-5-methoxy-2-[1,2,3]triazol-2-yl-phenyl)-[(R)-3-(3-[1,2,3]triazol-2-yl-benzyl)-morpholin-4-yl]-methanone] |  | 
33000 nM | 2 nM | 212 nM | Cc1ccc(C(=O)N2CCOC[C@H]2Cc2cccc(-c3ncon3)c2)c(-n2nccn2)c1 [Example 81, (4-Methyl-2-[1,2,3]triazol-2-yl-phenyl)-[(R)-3-(3-[1,2,4]oxadiazol-3-yl-benzyl)-morpholin-4-yl]-methanone] |  | 
21000 nM | 5 nM | 246 nM | O=C(c1cc(Cl)ccc1-n1nccn1)N1CCOC[C@H]1Cc1cccc(-c2ncon2)c1 [Example 84, (5-Chloro-2-[1,2,3]triazol-2-yl-phenyl)-[(R)-3-(3-[1,2,4]oxadiazol-3-yl-benzyl)-morpholin-4-yl]-methanone] |  | 
25000 nM | 1 nM | 21 nM | Cc1cc(C(=O)N2CCOC[C@H]2Cc2cccc(-c3ncon3)c2)c(-n2nccn2)cc1C [Example 85, (4,5-Dimethyl-2-[1,2,3]triazol-2-yl-phenyl)-[(R)-3-(3-[1,2,4]oxadiazol-3-yl-benzyl)-morpholin-4-yl]-methanone] |  | 
21000 nM | 12 nM | 475 nM | O=C(c1ccccc1-n1nccn1)N1CCOC[C@H]1Cc1ccc(Cl)c(-c2ncon2)c1 [Example 90, [(R)-3-(4-Chloro-3-[1,2,4]oxadiazol-3-yl-benzyl)-morpholin-4-yl]-(2-[1,2,3]triazol-2-yl-phenyl)-methanone] |  | 
17000 nM | 10 nM | 612 nM | O=C(c1cc(F)c(F)cc1-n1nccn1)N1CCOC[C@H]1Cc1cccc(-n2nccn2)c1 [Example 91, (4,5-Difluoro-2-[1,2,3]triazol-2-yl-phenyl)-[(R)-3-(3-[1,2,3]triazol-2-yl-benzyl)-morpholin-4-yl]-methanone] |  | 
49000 nM | 11 nM | 1200 nM | COc1ccc(C(=O)N2CCOC[C@H]2Cc2cc(-n3nccn3)ccc2F)c(-n2nccn2)c1 [Example 95, [(R)-3-(2-Fluoro-5-[1,2,3]triazol-2-yl-benzyl)-morpholin-4-yl]-(4-methoxy-2-[1,2,3]triazol-2-yl-phenyl)-methanone] |  | 
11000 nM | 3 nM | 237 nM | Cc1cccc(C(=O)N2C[C@@H](C)OC[C@H]2Cc2cccc(-n3nccn3)c2)c1-n1nccn1 [Example 97, [(2R,5R)-2-Methyl-5-(3-[1,2,3]triazol-2-yl-benzyl)-morpholin-4-yl]-(3-methyl-2-[1,2,3]triazol-2-yl-phenyl)-methanone] |  | 
9700 nM | 1 nM | 24 nM | Cc1cc(C(=O)N2C[C@@H](C)OC[C@H]2Cc2cccc(-n3nccn3)c2)c(-n2nccn2)cc1C [Example 98, (4,5-Dimethyl-2-[1,2,3]triazol-2-yl-phenyl)-[(2R,5R)-2-methyl-5-(3-[1,2,3]triazol-2-yl-benzyl)-morpholin-4-yl]-methanone] |  | 
9600 nM | 5 nM | 1220 nM | Cc1ccc(C(=O)N2C[C@@H](C)OC[C@H]2Cc2cccc(-n3nccn3)c2)c(-n2nccn2)c1C [Example 99, (3,4-Dimethyl-2-[1,2,3]triazol-2-yl-phenyl)-[(2R,5R)-2-methyl-5-(3-[1,2,3]triazol-2-yl-benzyl)-morpholin-4-yl]-methanone] |  | 
17000 nM | 25 nM | 1510 nM | Cc1ccc(-n2nccn2)c(C(=O)N2CCOC[C@@]2(C)Cc2cccc(-n3nccn3)c2)c1 [Example 102, [(R)-3-Methyl-3-(3-[1,2,3]triazol-2-yl-benzyl)-morpholin-4-yl]-(5-methyl-2-[1,2,3]triazol-2-yl-phenyl)-methanone] |  | 
14000 nM | 3 nM | 335 nM | Cc1cccc(C(=O)N2CCOC[C@H]2Cc2cc(Cl)cc(-n3nccn3)c2)c1-n1nccn1 [Example 106, [(R)-3-(3-Chloro-5-[1,2,3]triazol-2-yl-benzyl)-morpholin-4-yl]-(3-methyl-2-[1,2,3]triazol-2-yl-phenyl)-methanone] |  | 
22000 nM | 5 nM | 435 nM | O=C(c1cccc(Cl)c1-n1nccn1)N1CCOC[C@H]1Cc1cccc(-n2nccn2)c1 [Example 107, (3-Chloro-2-[1,2,3]triazol-2-yl-phenyl)-[(R)-3-(3-[1,2,3]triazol-2-yl-benzyl)-morpholin-4-yl]-methanone] |  | 
46000 nM | 10 nM | 855 nM | C[C@@H]1CN(C(=O)c2ccccc2-n2nccn2)[C@H](Cc2cccc(-c3ncccn3)c2)CO1 [Example 108, [(2R,5R)-2-Methyl-5-(3-pyrimidin-2-yl-benzyl)-morpholin-4-yl]-(2-[1,2,3]triazol-2-yl-phenyl)-methanone] |  | 
43000 nM | 1 nM | 105 nM | Cc1ccc(-n2nccn2)c(C(=O)N2C[C@@H](C)OC[C@H]2Cc2cccc(-c3ncccn3)c2)c1 [Example 109, [(2R,5R)-2-Methyl-5-(3-pyrimidin-2-yl-benzyl)-morpholin-4-yl]-(5-methyl-2-[1,2,3]triazol-2-yl-phenyl)-methanone] |  | 
> 50000 nM | 2 nM | 176 nM | Cc1ccc(C(=O)N2C[C@@H](C)OC[C@H]2Cc2cccc(-c3ncccn3)c2)c(-n2nccn2)c1 [Example 110, [(2R,5R)-2-Methyl-5-(3-pyrimidin-2-yl-benzyl)-morpholin-4-yl]-(4-methyl-2-[1,2,3]triazol-2-yl-phenyl)-methanone] |  | 
40000 nM | 7 nM | 983 nM | Cc1cccc(C(=O)N2C[C@@H](C)OC[C@H]2Cc2cccc(-c3ncccn3)c2)c1-n1nccn1 [Example 111, [(2R,5R)-2-Methyl-5-(3-pyrimidin-2-yl-benzyl)-morpholin-4-yl]-(3-methyl-2-[1,2,3]triazol-2-yl-phenyl)-methanone] |  | 
26000 nM | 2 nM | 110 nM | C[C@@H]1CN(C(=O)c2cc(Cl)ccc2-n2nccn2)[C@H](Cc2cccc(-c3ncccn3)c2)CO1 [Example 113, (5-Chloro-2-[1,2,3]triazol-2-yl-phenyl)-[(2R,5R)-2-methyl-5-(3-pyrimidin-2-yl-benzyl)-morpholin-4-yl]-methanone] |  | 
35000 nM | 1 nM | 83 nM | C[C@@H]1CN(C(=O)c2ccc(Cl)cc2-n2nccn2)[C@H](Cc2cccc(-c3ncccn3)c2)CO1 [Example 114, (4-Chloro-2-[1,2,3]triazol-2-yl-phenyl)-[(2R,5R)-2-methyl-5-(3-pyrimidin-2-yl-benzyl)-morpholin-4-yl]-methanone] |  | 
24000 nM | 2 nM | 146 nM | Cc1ccc(-n2nccn2)c(C(=O)N2C[C@@H](C)OC[C@H]2Cc2cc(-n3nccn3)ccc2F)c1 [Example 115, [(2R,5R)-5-(2-Fluoro-5-[1,2,3]triazol-2-yl-benzyl)-2-methyl-morpholin-4-yl]-(5-methyl-2-[1,2,3]triazol-2-yl-phenyl)-methanone] |  | 
23000 nM | 5 nM | 107 nM | Cc1ccc(C(=O)N2C[C@@H](C)OC[C@H]2Cc2cc(-n3nccn3)ccc2F)c(-n2nccn2)c1 [Example 117, [(2R,5R)-5-(2-Fluoro-5-[1,2,3]triazol-2-yl-benzyl)-2-methyl-morpholin-4-yl]-(4-methyl-2-[1,2,3]triazol-2-yl-phenyl)-methanone] |  | 

SMILES | IC50 [1] | IC50 [2, 4] | IC50 [3, 5] | IC50 [2] | IC50 [3]
COc1ccc(C(=O)N2CCOC[C@H]2Cc2cccc(-n3nccn3)c2)c(-n2nccn2)c1 [Example 93, (4-Methoxy-2-[1,2,3]triazol-2-yl-phenyl)-[(R)-3-(3-[1,2,3]triazol-2-yl-benzyl)-morpholin-4-yl]-methanone] | > 50000 nM |  |  | 5 nM | 2090 nM
Cc1ccc(C(=O)N2C[C@H](C)OC[C@H]2Cc2cccc(-n3nccn3)c2)c(-n2nccn2)c1 [Example 96, [(2S,5R)-2-Methyl-5-(3-[1,2,3]triazol-2-yl-benzyl)-morpholin-4-yl]-(4-methyl-2-[1,2,3]triazol-2-yl-phenyl)-methanone] | 28000 nM |  |  | 10 nM | 390 nM
Cc1ccc(C(=O)N2C[C@@H](C)OC[C@H]2Cc2cccc(-n3nccn3)c2)c(-n2nccn2)c1 [Example 101, [(2R,5R)-2-Methyl-5-(3-[1,2,3]triazol-2-yl-benzyl)-morpholin-4-yl]-(4-methyl-2-[1,2,3]triazol-2-yl-phenyl)-methanone] | 9700 nM |  |  | 2 nM | 155 nM
Cc1ccc(C(=O)N2CCOC[C@H]2Cc2cc(Cl)cc(-n3nccn3)c2)c(-n2nccn2)c1 [Example 105, [(R)-3-(3-Chloro-5-[1,2,3]triazol-2-yl-benzyl)-morpholin-4-yl]-(4-methyl-2-[1,2,3]triazol-2-yl-phenyl)-methanone] | 21000 nM |  | 101 nM | 2 nM | 
